In paper PMC6747318, “Mutual Enhancement of Opioid and Adrenergic Receptors by Combinations of Opioids and Adrenergic Ligands Is Reflected in Molecular Complementarity of Ligands: Drug Development Possibilities” (International Journal of Molecular Sciences, 2019):
Where “and” joins values, the source holds several entries; their conditions need not be identical. Identical values can stand only once. Counter-ions that a name gives are not always drawn. Like-named read-outs stand apart in the source and are kept apart here.

B1: dopamine D1 receptor 89-98, P21728 (peptide)
chain: FWPFGSFCNI
B2: mu opioid receptor 111-122, P35372 (peptide)
chain: NLALADALATST
B3: mu opioid receptor 121-131, P35372 (peptide)
chain: STLPFQSVNYL
B4: insulin receptor 157-166, P06213 (peptide)
chain: TIDWSRILDS
B5: insulin receptor 281-299, P06213 (peptide)
chain: VNFSFCQDLHHKCKNSRRQ
B6: mu opioid receptor 211-226, P35372 (peptide)
chain: KYRQGSIDCTLTFSHP
B7: beta 2 adrenergic receptor 175-188, P07550 (peptide)
chain: RATHQEAINCYANE
B8: histamine type 1 receptor 77-87, P35367 (peptide)
chain: GAVVMPMNILY

Key:
[1] = UV spectroscopy binding between compounds: binding to riboflavin; settings: pH 7.4 sodium phosphate buffer, read-out: Kd @ 200 nm, binding to Ribo
[2] = UV spectroscopy binding between compounds: binding to glucose; settings: read-out: Kd @ 200 nm, binding to Glucose, pH 7.4 sodium phosphate buffer
[3] = UV spectroscopy binding between compounds: binding to methadone; settings: pH 7.4 sodium phosphate buffer, read-out: Kd @ 200 nm, binding to Meth
[4] = UV spectroscopy binding between compounds: binding to amphetamine
[5] = UV spectroscopy binding between compounds: binding to naloxone; settings: pH 7.4 sodium phosphate buffer, read-out: Kd @ 200 nm, binding to NAL
methionine-enkephalin = methionine-enkephalin (Homo sapiens, UniProt P01210); assay: UV spectroscopy binding between compounds: binding to methionine-enkephalin; set-up: M-Enk = methionine-enkephalin; purchased Sigma-Aldrich
[6] = UV spectroscopy binding between compounds: binding to ascorbic acid; settings: read-out: Kd @ 200 nm, binding to Asc, pH 7.4 sodium phosphate buffer
[7] = UV spectroscopy binding between compounds: binding to morphine sulfate; settings: read-out: Kd @ 200 nm, binding to Morph; UV spectroscopy, pH 7.4 sodium phosphate buffer; single binding constant
[8] = UV spectroscopy binding between compounds: binding to propranolol
[9] = target: methionine-enkephalin (Homo sapiens), P01210; assay: UV spectroscopy; settings: modification not given
Chain of methionine-enkephalin (Homo sapiens), P01210 (P01210 whole entry, looked up): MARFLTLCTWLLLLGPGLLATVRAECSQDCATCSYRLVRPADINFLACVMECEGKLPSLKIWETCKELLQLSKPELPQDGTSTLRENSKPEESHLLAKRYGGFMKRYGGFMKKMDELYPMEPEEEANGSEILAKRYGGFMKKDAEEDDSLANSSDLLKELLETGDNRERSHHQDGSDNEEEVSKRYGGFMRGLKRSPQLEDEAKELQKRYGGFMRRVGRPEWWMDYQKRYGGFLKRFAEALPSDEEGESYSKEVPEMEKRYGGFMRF

[10] = read-out: Kd @ 200 nm, binding to Amph, UV spectroscopy, pH 7.4 sodium phosphate buffer, single binding constant
[11] = UV spectroscopy, pH 7.4 sodium phosphate buffer, single binding constant, read-out: Kd @ 200 nm, binding to M-Enk
[12] = Kd @ 200 nm, binding to M-Enk, high affinity binding, double curve, first value
[13] = read-out: Kd @ 200 nm, binding to M-Enk, low affinity binding, double curve, second value
[14] = read-out: Kd @ 200 nm, binding to Prop, UV spectroscopy, pH 7.4 sodium phosphate buffer, single binding constant
[15] = Kd @ 200 nm, binding to M-Enk, UV spectroscopy, pH 7.4 sodium phosphate buffer, single binding constant

Row | Molecule | Kd [1] [µM] | Kd [2] [µM] | Kd [3] [µM] | Kd [4, 10] [µM] | Kd [5] [µM] | Kd [6] [µM] | Kd [7] [µM] | Kd (methionine-enkephalin; [15]) [µM] | Kd [9] [µM] | also measured
1 | N[C@@H](Cc1ccccc1)C(=O)O [Phenylalanine] | 50 | > 1000 | > 1000 | 85 | 70 | > 1000 | > 1000 | – | – | Kd (methionine-enkephalin; [11]): > 1000 µM
2 | CC(C)NCC(O)COc1cccc2ccccc12 (stereo not drawn) [Propranolol] | – | – | – | – | – | – | – | – | – | Kd (methionine-enkephalin; [12]): ~3 µM and 3 µM; Kd (methionine-enkephalin; [13]): 35 µM; Kd (methionine-enkephalin; read-out: Kd @ 200 nm, binding to M-Enk, low affinity binding, double curve, second value, listed as propranolol): ~35 µM
3 | COc1ccc2[nH]cc(CCNC(C)=O)c2c1 [Melatonin] | – | > 1000 | 300 | 70 | 12 | 400 | 300 | 130 | – | Kd [8, 14]: 90 µM
4 | NCCc1ccc(O)cc1 [Tyramine] | 40 | > 1000 | 210 | 60 | 90 | 200 | 50 | 12 | – | Kd [8, 14]: 80 µM
5 | N[C@@H](Cc1ccc(O)c(O)c1)C(=O)O [L-DOPA, L-3,4-dihydroxyphenylalanine] | > 1000 | > 1000 | 80 | 11 | – | 100 | > 1000 | 70 | – | Kd [8, 14]: 15 µM
6 | NC[C@H](O)c1ccc(O)c(O)c1 [Norepinephrine HCl] | > 1000 | > 1000 | 70 | 80 | 80 | 110 | 0.4 | – | – | Kd [8, 14]: > 1000 µM; Kd (methionine-enkephalin; [12]): 5.3 µM; Kd (methionine-enkephalin; [13]): 35 µM
7 | COc1cc(CC(=O)O)ccc1O [Homovanillic Acid] | 70 | > 1000 | > 1000 | – | 85 | > 1000 | > 1000 | 80 | – | Kd ([4]; read-out: Kd @ 200 nm, binding to Amph, high affinity binding, double curve, first value): 1.5 µM; Kd ([4]; read-out: Kd @ 200 nm, binding to Amph, low affinity binding, double curve, second value): 90 µM
8 | NCC(O)c1ccc(O)cc1 (stereo not drawn) [Octopamine] | 30 | > 1000 | > 1000 | 100 | 55 | 220 | 3.2 | 80 | – | –
9 | N[C@@H](Cc1ccc(O)cc1)C(=O)O [Tyrosine] | > 1000 | > 1000 | 250 | 53 | 75 | 270 | > 1000 | – | – | Kd [8, 14]: 20 µM; Kd (methionine-enkephalin; [11]): > 1000 µM
10 | CC(C)(C)NCC(O)c1ccc(O)c(CO)c1 (stereo not drawn) [Salbutamol] | 50 | > 1000 | > 1000 | 0.6 | 180 | 160 | 0.3 | 30 | – | Kd ([8]; read-out: Kd @ 200 nm, binding to Prop, high affinity binding, double curve, first value): 1 µM; Kd ([8]; read-out: Kd @ 200 nm, binding to Prop, low affinity binding, double curve, second value): 130 µM
11 | B1 | – | – | – | – | – | – | – | – | 80 | –
12 | B2 | – | – | – | – | – | – | – | – | 80 | –
13 | B3 | – | – | – | – | – | – | – | – | 90 | –
14 | B4 | – | – | – | – | – | – | – | – | 100 | –
15 | B5 | – | – | – | – | – | – | – | – | > 1000 | –
16 | B6 | – | – | – | – | – | – | – | – | 1 | –
17 | B7 | – | – | – | – | – | – | – | – | 700 | –
18 | B8 | – | – | – | – | – | – | – | – | 70 | –
